ChEMBL document CHEMBL6153020, “Identification of Isoliensinine as a Ferroptosis Suppressor with Iron-Chelating Activity” (J Nat Prod, 2025)
Active and inactive are the calls of the source.

How the values were obtained:
HT-1080 [1] = assay: Anti-ferroptosis activity against FINO2-induced ferroptosis in human HT-1080 cells assessed as increase in cell viability at 20 uM incubated overnight by cell counting kit 8 method; assay type: functional, cell-based
[2] = Toxicity in C57BL/6 mouse assessed as change in ALT level in serum at 10 mg/kg, ip pretreated with iron sulfate for 8 hrs followed by compound administered for 30 min by automatic biochemical analyzer; assay type: organism-based; conditions: in vivo, 30 h
HT-1080 [3] = assay: Anti-ferroptosis activity against IKE-induced ferroptosis in human HT-1080 cells assessed as effect on GSH level at 5 uM; assay type: functional, cell-based
HT-1080 [4] = assay: Anti-ferroptosis activity against FINO2-induced ferroptosis in human HT-1080 cells assessed as reduction in MDA level at 5 uM; assay type: functional, cell-based
HT-1080 [5] = assay: Anti-ferroptosis activity against FeCl3/8HQ-induced ferroptosis in human HT-1080 cells assessed as reduction in total iron level at 5 uM by live-cell fluorescent imaging; assay type: functional, cell-based
HT-1080 [6] = assay: Anti-ferroptosis activity against RSL3-induced ferroptosis in human HT-1080 cells assessed as protection against cell death at 10 uM incubated for 24 hrs by SYTOX Green staining based light microscopy analysis; assay type: functional
HT-1080 [7] = assay: Anti-ferroptosis activity against FeCl3/8HQ-induced ferroptosis in human HT-1080 cells assessed as reduction in MDA level at 5 uM; assay type: functional, cell-based
HT-1080 [8] = assay: Anti-ferroptosis activity against RSL3-induced ferroptosis in human HT-1080 cells assessed as reduction in GPX4 level at 5 uM by Western blot analysis; assay type: functional, cell-based
HT-1080 [9] = assay: Anti-ferroptosis activity against FeSO4/8HQ-induced ferroptosis in human HT-1080 cells assessed as reduction in Fe2+ level at 5 uM by FerroOrange staining based live-cell fluorescent imaging; assay type: functional
[10] = Toxicity in C57BL/6 mouse assessed as change in AST level in serum at 10 mg/kg, ip pretreated with iron sulfate for 8 hrs followed by compound administered for 30 min by automatic biochemical analyzer; assay type: organism-based; conditions: in vivo, 30 h
Mus musculus [11] = assay: Anti-ferroptotic activity against acute iron overload in male C57BL/6 mouse model assessed as reduction in MDA level in liver at 10 mg/kg, ip pretreated with iron sulfate for 8 hrs followed by compound administered for 30 min; assay type: functional, organism-based
HT-1080 [12] = assay: Anti-ferroptosis activity against RSL3-induced ferroptosis in human HT-1080 cells assessed as increase in cell viability at 10 uM incubated for 24 hrs by CCK-8 assay; assay type: functional, cell-based
HT-1080 [13] = assay: Anti-ferroptosis activity against IKE-induced ferroptosis in human HT-1080 cells assessed as increase in cell viability at 1 to 50 uM incubated for 24 hrs by cell counting kit 8 method; assay type: functional, cell-based; conditions: dose 1-50 µM
HT-1080 [14] = assay: Anti-ferroptosis activity against FeSO4/8HQ-induced ferroptosis in human HT-1080 cells assessed as reduction in MDA level at 5 uM; assay type: functional, cell-based
[15] = Toxicity in C57BL/6 mouse assessed as change in CK level in serum at 10 mg/kg, ip pretreated with iron sulfate for 8 hrs followed by compound administered for 30 min by automatic biochemical analyzer; assay type: organism-based; conditions: in vivo, 30 h
[16] = Antioxidant activity assessed as ABTS radical scavenging activity at 5 uM by ABTS method; assay type: functional
HT-1080 [17] = assay: Anti-ferroptosis activity against FINO2-induced ferroptosis in human HT-1080 cells assessed as upregulation of PTGS2 mRNA level at 5 uM by qPCR analysis; assay type: functional, cell-based
HT-1080 [18] = assay: Anti-ferroptosis activity against IKE-induced ferroptosis in human HT-1080 cells assessed as increase in cell viability at 10 uM incubated for 24 hrs by SYTOX Green staining based light microscopy analysis; assay type: functional
Mus musculus [19] = assay: Anti-ferroptotic activity against acute iron overload in male C57BL/6 mouse model assessed as reduction in […] mRNA expression level in liver at 10 mg/kg, ip pretreated with iron sulfate for 8 hrs followed by compound administered for 30 min by qPCR analysis; assay type: functional, organism-based
HT-1080 [20] = assay: Anti-ferroptosis activity against ZnCl2-induced ferroptosis in human HT-1080 cells assessed as increase in cell viability at 5 uM incubated for 24 hrs by cell counting kit 8 method; assay type: functional, cell-based
HT-1080 [21] = assay: Anti-ferroptosis activity against FINO2-induced ferroptosis in human HT-1080 cells assessed as increase in cell viability at 1 to 50 uM incubated for 24 hrs by cell counting kit 8 method; assay type: functional, cell-based; conditions: dose 1-50 µM
Mus musculus [22] = assay: Protection against male acute iron overload C57BL/6 mouse model assessed as reduction in hepatic iron content at 10 mg/kg, ip pretreated with iron sulfate for 8 hrs followed by compound administered for 30 min; assay type: functional, organism-based
Mus musculus [23] = assay: Protection against acute iron overload in male C57BL/6 mouse model assessed as reduction in spleen iron content at 10 mg/kg, ip pretreated with iron sulfate for 8 hrs followed by compound administered for 30 min by Perls Prussian blue staining; assay type: functional, organism-based
HT-1080 [24] = assay: Anti-ferroptosis activity against RSL3-induced ferroptosis in human HT-1080 cells assessed as increase in cell viability at 10 uM incubated overnight in the presence of ML385 by cell counting kit 8 method; assay type: functional, cell-based
Mus musculus [25] = assay: Protection against acute iron overload in male C57BL/6 mouse model assessed as reduction in hepatic FTL level at 10 mg/kg, ip pretreated with iron sulfate for 8 hrs followed by compound administered for 30 min by Western blot analysis; assay type: functional, organism-based
Mus musculus [26] = assay: Protection against acute iron overload in male C57BL/6 mouse model assessed as reduction in liver iron content at 10 mg/kg, ip pretreated with iron sulfate for 8 hrs followed by compound administered for 30 min by Perls Prussian blue staining; assay type: functional, organism-based
HT-1080 [27] = assay: Anti-ferroptosis activity against FINO2-induced ferroptosis in human HT-1080 cells assessed as reduction in total iron level at 5 uM by live-cell fluorescent imaging; assay type: functional, cell-based
HT-1080 [28] = assay: Anti-ferroptosis activity against RSL3-induced ferroptosis in human HT-1080 cells assessed as reduction in MDA level; assay type: functional, cell-based
HT-1080 [29] = assay: Anti-ferroptosis activity against RSL3-induced ferroptosis in human HT-1080 cells assessed as increase in cell viability at 5 uM incubated for 24 hrs by cell counting kit 8 method; assay type: functional, cell-based
HT-1080 [30] = assay: Anti-ferroptosis activity against RSL3-induced ferroptosis in human HT-1080 cells assessed as upregulation of PTGS2 mRNA expression by qPCR analysis; assay type: functional, cell-based
HT-1080 [31] = assay: Anti-ferroptosis activity against IKE-induced ferroptosis in human HT-1080 cells assessed as effect on GSH/GSSG ratio at 5 uM; assay type: functional, cell-based
HT-1080 [32] = assay: Anti-ferroptosis activity against FeCl3/8HQ-induced ferroptosis in human HT-1080 cells assessed as increase in cell viability at 1 to 50 uM incubated for 24 hrs by cell counting kit 8 method; assay type: functional, cell-based; conditions: dose 1-50 µM
HT-1080 [33] = assay: Anti-ferroptosis activity against FeSO4/8HQ-induced ferroptosis in human HT-1080 cells assessed as reduction in total iron level at 5 uM by live-cell fluorescent imaging; assay type: functional, cell-based
HT-1080 [34] = assay: Anti-ferroptosis activity against FeCl3/8HQ-induced ferroptosis in human HT-1080 cells assessed as increase in cell viability at 5 uM incubated for 24 hrs by cell counting kit 8 method; assay type: functional, cell-based
HT-1080 [35] = assay: Anti-ferroptosis activity against IKE-induced ferroptosis in human HT-1080 cells assessed as inhibition of lipid peroxidation level at 5 uM by BODIPY 581/591 C11 dye based flow cytometry analysis; assay type: functional, cell-based
HT-1080 [36] = assay: Anti-ferroptosis activity against FINO2-induced ferroptosis in human HT-1080 cells assessed as decrease in cell death at 5 uM incubated for 24 hrs by SYTOX Green staining based light microscopy analysis; assay type: functional
[37] = Toxicity in C57BL/6 mouse assessed as change in LDH level in serum at 10 mg/kg, ip pretreated with iron sulfate for 8 hrs followed by compound administered for 30 min by automatic biochemical analyzer; assay type: organism-based; conditions: in vivo, 30 h
HT-1080 [38] = assay: Anti-ferroptosis activity against RSL3-induced ferroptosis in human HT-1080 cells assessed as reduction in ROS level by DCFH-DA dye based analysis; assay type: functional, cell-based
Mus musculus [39] = assay: Protection against acute iron overload in male C57BL/6 mouse model assessed as reduction in hepatic FTH level at 10 mg/kg, ip pretreated with iron sulfate for 8 hrs followed by compound administered for 30 min by Western blot analysis; assay type: functional, organism-based
HT-1080 [40] = assay: Anti-ferroptosis activity against FINO2-induced ferroptosis in human HT-1080 cells assessed as reduction in Fe2+ oxidation level at 5 uM by colorimetric method; assay type: functional, cell-based
HT-1080 [41] = assay: Anti-ferroptosis activity against RSL3-induced ferroptosis in human HT-1080 cells assessed as restoration of lipid peroxidation level by BODIPY 581/591 C11 dye based flow cytometry analysis; assay type: functional, cell-based
HT-1080 [42] = assay: Anti-ferroptosis activity against MnCl2-induced ferroptosis in human HT-1080 cells assessed as increase in cell viability at 5 uM incubated for 24 hrs by cell counting kit 8 method; assay type: functional, cell-based
HT-1080 [43] = assay: Anti-ferroptosis activity against FeSO4/8HQ-induced ferroptosis in human HT-1080 cells assessed as increase in cell viability at 1 to 10 uM incubated for 24 hrs by cell counting kit 8 method; assay type: functional, cell-based; conditions: dose 1-10 µM
HT-1080 [44] = assay: Anti-ferroptosis activity against RSL3-induced ferroptosis in human HT-1080 cells assessed as increase in cell viability at 50 uM incubated for 24 hrs by cell counting kit 8 method; assay type: functional, cell-based

Measured: Activity

COc1ccc(C[C@@H]2c3cc(Oc4cc(C[C@H]5c6cc(OC)c(OC)cc6CCN5C)ccc4O)c(OC)cc3CCN2C)cc1
inactive: HT-1080 [1]

COc1ccc(C[C@@H]2c3cc(Oc4cc(C[C@@H]5c6cc(O)c(OC)cc6CCN5C)ccc4O)c(OC)cc3CCN2C)cc1 [ISOLIENSININE]
Non-toxic: [2] | [10] | [15] | [37]
active: HT-1080 [3] | HT-1080 [4] | HT-1080 [5] | HT-1080 [6] | HT-1080 [7] | HT-1080 [9] | Mus musculus [11] | HT-1080 [13] | HT-1080 [14] | HT-1080 [17] | HT-1080 [18] | Mus musculus [19] | HT-1080 [21] | Mus musculus [22] | Mus musculus [23] | HT-1080 [24] | Mus musculus [25] | Mus musculus [26] | HT-1080 [27] | HT-1080 [28] | HT-1080 [29] | HT-1080 [30] | HT-1080 [31] | HT-1080 [32] | HT-1080 [33] | HT-1080 [35] | HT-1080 [36] | HT-1080 [38] | Mus musculus [39] | HT-1080 [40] | HT-1080 [41] | HT-1080 [43]
Active; Strong Protection: HT-1080 [12]
inactive: HT-1080 [8] | [16] | HT-1080 [20] | HT-1080 [34] | HT-1080 [42]

C=CC(C)(C)c1cc(/C=C/C(=O)c2ccc(O)cc2)c(OC)cc1O
inactive: HT-1080 [8] | [16] | HT-1080 [21] | HT-1080 [32] | HT-1080 [36]
active: HT-1080 [3] | HT-1080 [6] | HT-1080 [13] | HT-1080 [18] | HT-1080 [24] | HT-1080 [28] | HT-1080 [29] | HT-1080 [30] | HT-1080 [31] | HT-1080 [35] | HT-1080 [38] | HT-1080 [41]
Active; Strong Protection: HT-1080 [12]

C/C=C/c1ccc(OC(C)=O)c(OC)c1
Active; Strong Protection: HT-1080 [12]
inactive: HT-1080 [8] | [16] | HT-1080 [21] | HT-1080 [32] | HT-1080 [36]
active: HT-1080 [3] | HT-1080 [6] | HT-1080 [13] | HT-1080 [18] | HT-1080 [24] | HT-1080 [44] | HT-1080 [28] | HT-1080 [30] | HT-1080 [31] | HT-1080 [35] | HT-1080 [38] | HT-1080 [41]

COc1cc2c(cc1OC)[C@@H](Cc1ccc(O)c(Oc3cc4c(cc3OC)CCN(C)[C@@H]4Cc3ccc(O)cc3)c1)N(C)CC2
inactive: HT-1080 [1]
